Results taken from ChEMBL document CHEMBL5236632, “Membrane-Active Nonivamide Derivatives as Effective Broad-Spectrum Antimicrobials: Rational Design, Synthesis, and Biological Evaluation” (J Med Chem, 2022).
In brackets after ≈: the same amount, converted by molar mass. Activity calls are given as the source filed them. The calls are words filed in the database; no cut-off is given here.

Tests used:
Escherichia coli [1] = test: Drug resistance development in Escherichia coli ATCC 25922 assessed as fold change in MIC measured after 20 passages; format: functional
Escherichia coli [2] = test: Antibacterial activity against Escherichia coli ATCC 25922 assessed as reduction in bacterial load at 8 time of MIC measured with in 30 mins by time kill assay; format: functional; details: 0.5 h
Acinetobacter baumannii [3] = test: Antibacterial activity against Acinetobacter baumannii ATCC 17978 assessed as inhibition of visible growth measured after 18 to 24 hrs by broth dilution method; format: functional; details: time 18-24 hrs
Staphylococcus aureus [4] = test: Antibacterial activity against methicillin-resistant Staphylococcus aureus N315 assessed as inhibition of visible growth measured after 18 to 24 hrs by broth dilution method; format: functional; details: time 18-24 hrs
Pseudomonas aeruginosa = test: Antibacterial activity against Pseudomonas aeruginosa ATCC 9027 assessed as inhibition of visible growth measured after 18 to 24 hrs by broth dilution method; format: functional; details: time 18-24 hrs
[5] = Cytotoxicity against mouse NCTC clone 929 cells assessed as cell viability after 24 hrs incubation byCCK-8 assay; format: toxicity, cell-based
[6] = Selectivity ratio, HC50 for hemolytic activity in rabbit RBC to MIC for antibacterial activity against Pseudomonas aeruginosa ATCC 9027; format: toxicity; details: erythrocytes
Acinetobacter baumannii [7] = test: Antibacterial activity against Acinetobacter baumannii R2889 assessed as inhibition of visible growth measured after 18 to 24 hrs by broth dilution method; format: functional; details: time 18-24 hrs
Cell membrane [8] = test: Induction of membrane depolarization in Escherichia coli ATCC 25922 assessed as increase in fluorescence intensity at 4 to 8 times MIC measured for 60 mins by DiSC3(5) dye based fluorescence method; format: subcellular
Cell membrane [9] = test: Induction of outer membrane permeability in Escherichia coli ATCC 25922 assessed as increase fluoresence intensity at 4 to 8 times of MIC measured for 60 mins by NPN uptake assay; format: subcellular
[10] = Cytotoxicity against HEK293 cells assessed as cell viability after 24 hrs incubation byCCK-8 assay; format: toxicity, cell-based; details: human
Klebsiella pneumoniae [11] = test: Antibacterial activity against Klebsiella pneumoniae ATCC 10031 assessed as inhibition of visible growth measured after 18 to 24 hrs by broth dilution method; format: functional; details: time 18-24 hrs
[12] = Haemolytic activity in rabbit red blood cells incubated for 60 mins by k multi-mode reader relative to control; format: toxicity, cell-based, Oryctolagus cuniculus, Erythrocyte
Klebsiella pneumoniae [13] = test: Antibacterial activity against Klebsiella pneumoniae ATCC 14581 assessed as inhibition of visible growth measured after 18 to 24 hrs by broth dilution method; format: functional; details: time 18-24 hrs
Staphylococcus aureus [14] = test: Antibacterial activity against Staphylococcus aureus ATCC 29213 assessed as inhibition of visible growth measured after 18 to 24 hrs by broth dilution method; format: functional; details: time 18-24 hrs
Cell membrane [15] = test: Induction of membrane depolarization in Staphylococcus aureus ATCC 29213 assessed as increase in fluorescence intensity at 4 to 8 times MIC measured for 60 mins by DiSC3(5) dye based fluorescence method; format: subcellular
Escherichia coli [16] = test: Antibacterial activity against Escherichia coli ATCC 25922 assessed as inhibition of visible growth measured after 18 to 24 hrs by broth dilution method; format: functional; details: time 18-24 hrs
Staphylococcus aureus [17] = test: Antibacterial activity against methicillin-resistant Staphylococcus aureus NCTC 10442 assessed as inhibition of visible growth measured after 18 to 24 hrs by broth dilution method; format: functional; details: time 18-24 hrs

SMILES	fold change (FC) (Escherichia coli [1])	Activity (Escherichia coli [2])	MIC (Acinetobacter baumannii [3])	MIC (Staphylococcus aureus [4])	MIC (Pseudomonas aeruginosa)	CC50 at 24 h [5]	MIC [6]	MIC (Acinetobacter baumannii [7])	Activity (Cell membrane [8])	Activity (Cell membrane [9])	CC50 at 24 h [10]	MIC (Klebsiella pneumoniae [11])	HC5 ([12]; erythrocyte, 1 h)	HC50 at 1 h ([12]; rabbit red blood cells)	MIC (Klebsiella pneumoniae [13])	MIC (Staphylococcus aureus [14])	Activity (Cell membrane [15])	MIC (Escherichia coli [16])	MIC (Staphylococcus aureus [17])
CC1(C)S[C@@H]2[C@H](NC(=O)[C@H](N)c3ccc(O)cc3)C(=O)N2[C@H]1C(=O)O [AMOXICILLIN]	16	0.29 log10CFU/ml	–	–	–	–	–	–	–	–	–	–	–	–	–	–	–	–	–
CCCCCCCCC(=O)NCc1ccc(O)c(OC)c1 [NONIVAMIDE]	–	–	> 50 µg/mL	> 50 µg/mL	> 50 µg/mL	59 µg/mL (≈ 201 µM)	> 50 µg/mL	> 50 µg/mL	inactive	inactive	62 µg/mL (≈ 211 µM)	> 50 µg/mL	> 200 µg/mL	> 200 µg/mL	> 50 µg/mL	> 50 µg/mL	inactive	> 50 µg/mL	> 50 µg/mL
